Laboratory results: PMC9409043, “Serotonin 5-HT6 Receptor Ligands and Butyrylcholinesterase Inhibitors Displaying Antioxidant Activity—Design, Synthesis and Biological Evaluation of Multifunctional Agents against Alzheimer’s Disease” (International Journal of Molecular Sciences, 2022)
Values joined by “and” are separate entries in the source; they are usually repeats but may differ in a detail not shown here. Identical values can stand only once.

Tests used:
[1] = ABTS free radical scavenging assay
Excerpt: Antioxidant activity. As mentioned before, oxidative stress is one of the components of AD pathomechanism and is characterised by an imbalance in the production of ROS. One of the mechanisms by which antioxidants reduce the concentration of ROS and therefore prevent or slow the cell damage caused by free radicals is scavenging them. Thus, we tested the scavenging ability of compounds 12–19 in the spectrophotometric ABTS assay that we used before. In this assay, the ability of compounds to scavenge ABTS^• radicals, which are generated from 2,2’-azino-bis(3-ethylbenzothiazoline-6-sulphonic acid) (ABTS), is measured. We tested the compounds at three concentrations: 30, 75 and 150 μM after 5, 30 and 60 min of incubation using Trolox, a water-soluble vitamin E analogue, as a reference (Table S1 in Supporting information).
The spectrophotometric ABTS assay was performed in 96-well microplates with the reagents purchased from Sigma-Aldrich (Steinheim, Germany) according to the previously described procedure. Stock solutions of the tested compounds (6.4 mM) and reagents were prepared in DMSO and water, respectively. 2,2′-Azino-bis(3-ethylbenzothiazoline-6-sulfonic acid) free radical (ABTS^•) was prepared by mixing the stock solution of ABTS (7 mM) and […] (2.45 mM) in ratio 1:1. The mixture was kept in the dark at 4 °C for 16 h. The obtained solution of (ABTS^•) was diluted with water 20 times. Then, the test compound or water or mixture of DMSO/water in the appropriate ratio (0.02 mL) was added to ABTS^• solution (0.18 mL). The three concentrations of the test compounds and Trolox were tested in triplicate: 0.15, 0.075 and 0.03 mM. Changes in absorbance were measured at 734 nm after 5, 30 and 60 min, using a microplate reader (SPECTROstar Nano; BMG Labtech, Ortenberg, Germany). Based on the equation ((A0 − A)/A0) × 100% (where A0 and A were the absorbances without and with the test compound, respectively) the percentage of free radical scavenging activity was calculated. The results are presented as mean ± SD.

[2] = target: T1, human recombinant AChE (hAChE) (Homo sapiens, UniProt P22303); experiment: biochemical; details: for IC50: mean ± SEM of at least three experiments
T1 construct: purchased Sigma-Aldrich (Steinheim, Germany)
T1 sequence (P22303 32-614): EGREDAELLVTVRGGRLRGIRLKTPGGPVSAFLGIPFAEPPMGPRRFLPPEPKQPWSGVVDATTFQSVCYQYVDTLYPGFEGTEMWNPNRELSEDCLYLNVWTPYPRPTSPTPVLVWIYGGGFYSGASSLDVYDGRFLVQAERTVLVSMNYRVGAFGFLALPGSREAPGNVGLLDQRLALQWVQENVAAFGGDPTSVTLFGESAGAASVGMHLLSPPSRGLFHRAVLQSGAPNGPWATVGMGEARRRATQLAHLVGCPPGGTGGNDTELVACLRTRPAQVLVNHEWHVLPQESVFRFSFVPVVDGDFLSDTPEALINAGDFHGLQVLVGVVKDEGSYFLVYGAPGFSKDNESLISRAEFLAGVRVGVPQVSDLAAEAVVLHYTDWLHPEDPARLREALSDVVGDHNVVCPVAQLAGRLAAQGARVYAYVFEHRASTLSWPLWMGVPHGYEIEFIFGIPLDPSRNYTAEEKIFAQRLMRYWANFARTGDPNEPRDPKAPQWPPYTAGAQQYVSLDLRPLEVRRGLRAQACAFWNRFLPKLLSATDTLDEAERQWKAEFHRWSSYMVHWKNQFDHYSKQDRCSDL
Experimental: (§1) 5-HT6R binding affinity and cholinesterase (AChE/BuChE) inhibitory activity. […] Their affinities for recombinant human 5-HT6 receptors (h5-HT6R) were tested in a radioligand binding assay and the inhibitory potencies against human recombinant AChE (hAChE) and BuChE isolated from human plasma (hBuChE) in the spectrophotometric Ellman’s assay.
(§2) The assay was based on spectrophotometric Ellman’s method and was performed in 96-well microplates with the reagents purchased from Sigma-Aldrich (Steinheim, Germany) according to the previously described procedure. hBuChE was kindly donated by Vivonics (Bedford, MA, USA). […] After 5 minutes of the enzymatic reaction, the changes in absorbance were measured at 412 nm, using a microplate reader (SPECTROstar Nano; BMG Labtech, Ortenberg, Germany). First, compounds were tested at the screening concentration of 10 µM. Based on the equation 100 − (S/B) × 100 (where S and B were the respective enzyme activities with and without the test sample, respectively) the percentage inhibition of each enzyme for each compound was calculated. […] The IC50 values were calculated using nonlinear regression (GraphPad Prism 5; GraphPad Software, San Diego, CA, USA) by plotting the residual enzyme activities against the applied inhibitor concentration. […] All experiments were performed in triplicate.

human 5-HT6 receptor = target: T2, human 5-HT6 receptor (Homo sapiens, UniProt P50406); experiment: 5-HT6 receptor radioligand binding assay ([3H]-LSD, CHO-K1 membranes)
T2 construct: purchased PerkinElmer; host or cells: CHO-K1 cells, stably transfected (membrane preparation)
T2 sequence (P50406 whole entry): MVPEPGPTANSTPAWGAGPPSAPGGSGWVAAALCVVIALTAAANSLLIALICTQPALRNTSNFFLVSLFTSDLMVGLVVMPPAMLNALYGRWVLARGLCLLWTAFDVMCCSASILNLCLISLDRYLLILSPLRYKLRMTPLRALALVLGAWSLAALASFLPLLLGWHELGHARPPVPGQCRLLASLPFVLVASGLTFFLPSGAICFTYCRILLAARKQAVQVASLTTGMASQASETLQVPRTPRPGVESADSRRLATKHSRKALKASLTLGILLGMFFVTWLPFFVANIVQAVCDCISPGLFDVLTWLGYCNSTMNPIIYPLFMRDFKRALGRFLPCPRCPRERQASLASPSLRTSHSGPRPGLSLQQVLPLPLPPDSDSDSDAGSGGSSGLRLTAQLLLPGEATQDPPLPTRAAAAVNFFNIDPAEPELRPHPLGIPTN
Experimental: 5-HT6R binding affinity and cholinesterase (AChE/BuChE) inhibitory activity. We evaluated the pharmacological properties of the final compounds 12–19 in vitro according to the previously described, well-established protocols. Their affinities for recombinant human 5-HT6 receptors (h5-HT6R) were tested in a radioligand binding assay and the inhibitory potencies against human recombinant AChE (hAChE) and BuChE isolated from human plasma (hBuChE) in the spectrophotometric Ellman’s assay. […].
We prepared 10 mM of stock solutions of tested compounds in DMSO. Serial dilutions of compounds were prepared in a 96-well microplate in assay buffers using the automated pipetting system epMotion 5070 (Eppendorf). Each compound was tested in 8 concentrations from 10^−5 to 10^−12 M (final concentration).
The radioligand binding assay was performed using membranes from CHO-K1 cells stably transfected with the human 5-HT6 receptor (PerkinElmer) according to the previously described procedure. All assays were carried out in duplicates. We prepared 50 µL working solution of the tested compounds, 50 µL [^3H]-LSD (final concentration 2.5 nM) and 150 µL diluted membranes (15 µg protein per well) in assay buffer (50 mM Tris, pH 7.4, 10 mM MgCl2, 0.1 mM EDTA) and transferred them to polypropylene 96-well microplates using a 96-well pipetting station Rainin Liquidator (MettlerToledo). Methiothepin (10 μM) was used to define nonspecific binding. The microplate was covered with sealing tape, mixed and incubated for 60 min at 27 °C. The reaction was terminated by rapid filtration through GF/B filter mate presoaked with 0.5% polyethyleneimine for 30 min. Ten rapid washes with 200 µL 50 mM Tris buffer (4 °C, pH 7.4) were performed using the automated harvester system Harvester-96 MACH III FM (Tomtec). The filter mates were dried at 37 °C in a forced air fan incubator and then solid scintillator MeltiLex was melted on filter mates at 90 °C for 5 min. Radioactivity was counted in MicroBeta2 scintillation counter (PerkinElmer). Data were fitted to a one-site curve-fitting equation with Prism 6 (GraphPad Software) and Ki values were estimated from the Cheng−Prusoff equation.

[3] = target: T3, BuChE isolated from human plasma (hBuChE) (Homo sapiens, UniProt P06276); experiment: biochemical; format: biochemical; details: for IC50: mean ± SEM of at least three experiments
T3 construct: BuChE isolated from human plasma (hBuChE); tissue Vivonics (Bedford, MA, USA), donated; host or cells: human plasma
T3 sequence (P06276 29-602): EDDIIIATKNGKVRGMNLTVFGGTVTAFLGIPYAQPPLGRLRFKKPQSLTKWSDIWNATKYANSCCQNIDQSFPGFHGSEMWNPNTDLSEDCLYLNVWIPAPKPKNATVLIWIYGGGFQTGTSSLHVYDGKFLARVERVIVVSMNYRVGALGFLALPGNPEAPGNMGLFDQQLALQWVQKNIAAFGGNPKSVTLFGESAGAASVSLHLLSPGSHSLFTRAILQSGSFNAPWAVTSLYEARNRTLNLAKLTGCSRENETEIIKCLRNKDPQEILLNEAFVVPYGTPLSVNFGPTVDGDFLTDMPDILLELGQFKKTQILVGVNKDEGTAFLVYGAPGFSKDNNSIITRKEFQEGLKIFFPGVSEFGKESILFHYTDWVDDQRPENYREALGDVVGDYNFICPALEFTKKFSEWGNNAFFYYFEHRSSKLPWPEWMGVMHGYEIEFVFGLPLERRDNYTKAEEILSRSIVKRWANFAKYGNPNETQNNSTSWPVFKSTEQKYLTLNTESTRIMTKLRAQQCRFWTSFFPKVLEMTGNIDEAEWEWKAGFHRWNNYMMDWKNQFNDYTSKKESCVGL
Experimental: as §1, §2

[4] = Metabolic stability in mouse liver microsomes; format: in vitro ADME; details: 2 h, pH 7.4
[5] = Metabolic stability in human liver microsomes; format: in vitro ADME
Experimental: Metabolic stability. […] For detailed results, including UPLC chromatograms and MS spectra, see the Supporting information (Figures S1–S16).
The metabolic stability was evaluated by incubation of compounds with human liver microsomes (Sigma-Aldrich, St. Louis, MO, USA) in 10 mM Tris–HCl buffer (pH 7.4) at 37 °C for 120 min in the presence of NADPH Regeneration System (Promega, Madison, WI, USA). The percentage of the remaining substrate and the most probable metabolic pathways were estimated by UPLC-MS analyses of the reaction mixtures.

CYP2D6 = target: T4, CYP2D6 (Homo sapiens, UniProt P10635); experiment: CYP P450-Glo luminescence assay, CYP2D6; format: in vitro ADME; details: human, CYP2D6 enzyme in the luminescent P450-Glo assay (Promega); 0.1 µM
T4 construct: purchased Promega, Madison, WI, USA
T4 sequence (P10635 whole entry): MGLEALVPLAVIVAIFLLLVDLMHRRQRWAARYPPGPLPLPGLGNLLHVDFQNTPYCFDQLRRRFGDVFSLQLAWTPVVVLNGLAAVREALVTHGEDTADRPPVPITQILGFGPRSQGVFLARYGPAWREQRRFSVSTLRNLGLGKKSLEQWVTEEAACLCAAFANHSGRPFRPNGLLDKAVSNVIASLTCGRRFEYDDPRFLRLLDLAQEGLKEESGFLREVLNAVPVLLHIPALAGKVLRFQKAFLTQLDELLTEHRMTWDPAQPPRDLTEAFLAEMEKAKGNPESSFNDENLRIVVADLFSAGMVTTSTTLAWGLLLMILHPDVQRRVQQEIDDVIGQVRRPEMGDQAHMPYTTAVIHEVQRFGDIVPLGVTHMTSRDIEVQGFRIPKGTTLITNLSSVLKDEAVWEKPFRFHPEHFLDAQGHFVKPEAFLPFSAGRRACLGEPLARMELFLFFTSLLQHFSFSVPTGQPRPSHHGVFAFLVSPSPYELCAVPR
Excerpt: Influence on CYP3A4 and CYP2D6 activity. Possible drug–drug interactions (DDIs) are an important issue for elderly patients, who are usually on multiple medications. They may result, among other things, from the interactions (inhibition or activation) of the cytochrome P450 isoenzymes, especially CYP3A4 and CYP2D6, which play the most significant role in drugs’ biotransformation. Therefore, to predict the potential influence of the studied compounds (14, 16 and 19) on the metabolism of other drugs, we used the CYP450 inhibition luminescence assay (Promega). […]. […] […]. […] […].
The influence on CYP 3A4 and 2D6 activity was estimated by respective luminescent CYP P450-Glo™ assay (Promega®, Madison, WI, USA). The compounds were tested in the concentration range of 0.1–25 µM. The results were compared to the respective reference CYP inhibitors: ketoconazole and quinidine.

Row | SMILES | % of ABTS• reduction ± SD ([1]; 30 µM, 5 min) | % of ABTS• reduction ± SD ([1]; 30 µM, 30 min) | % of ABTS• reduction ± SD ([1]; 30 µM, 60 min) | % of ABTS• reduction ± SD ([1]; 75 µM, 5 min) | % of ABTS• reduction ± SD ([1]; 75 µM, 30 min) | % of ABTS• reduction ± SD ([1]; 75 µM, 60 min) | % of ABTS• reduction ± SD ([1]; 150 µM, 5 min) | % of ABTS• reduction ± SD ([1]; 150 µM, 30 min) | % of ABTS• reduction ± SD ([1]; 150 µM, 60 min) | IC50 [2] | Ki (human 5-HT6 receptor) | IC50 [3] | MLMs % Left [4] | main metabolic pathway [5] | HLMs % Left ([5]; human, 2 h, pH 7.4) | inhibition at 0.1 µM (CYP2D6) | inhibition at 10 µM ([2]; 10 µM concentration) | inhibition at 10 µM ([3]; 10 µM concentration)
1 | Cc1c(C)c2c(c(C)c1O)CCC(C)(C(=O)O)O2 (stereo not shown) [Trolox, reference compound] | 59±2% | 59±2% | 59±2% and 59% | 100±0% | 100±0% | 100% | 100±0% | 100±0% | 100±0% and 100% |  |  |  |  |  |  |  |  | 
2 | O=S(=O)(c1ccccc1)n1ccc2c(OCCNCC3CCN(Cc4ccccc4)CC3)cccc21 [Compound 12, N-((1-Benzylpiperidin-4-yl)methyl)-2-((1-(phenylsulfonyl)-1H-indol-4-yl)oxy)ethan-1-amine] | 8±1% | 9±0% | 10±0% | 13±0% | 19±0% | 24±1% | 20±3% | 30±3% | 39±4% | 3150 ± 81 nM | 21 ± 1 nM | 2300 nM and 2320 nM |  |  |  |  |  | 
3 | O=S(=O)(c1ccccc1)n1ccc2c(OCCNCCC3CCN(Cc4ccccc4)CC3)cccc21 [Compound 13, 2-(1-Benzylpiperidin-4-yl)-N-(2-((1-(phenylsulfonyl)-1H-indol-4-yl)oxy)ethyl)ethan-1-amine] | 5±1% | 5±1% | 6±1% | 9±1% | 11±1% | 13±1% | 20±0% | 29±1% | 34±1% | 2260 ± 91 nM | 17 ± 2 nM | 1110 ± 31 nM |  |  |  |  |  | 
4 | O=S(=O)(c1ccccc1)N1CCc2c(OCCNCCCC3CCN(Cc4ccccc4)CC3)cccc21 [Compound 16, 3-(1-Benzylpiperidin-4-yl)-N-(2-((1-(phenylsulfonyl)indolin-4-yl)oxy)ethyl)propan-1-amine] | 7±0% | 7±1% | 7±1% | 7±2% | 9±2% | 11±3% | 10±0% | 19±1% | 24±1% | 821 ± 14 nM | 598 ± 19 nM | 487 ± 12 nM | 84.48% | oxidative deamination | 84.40% | ~20% |  | 
5 | O=c1[nH]c2c(OCCNCC3CCN(Cc4ccccc4)CC3)cccc2n1Cc1ccccc1 [Compound 17, 1-Benzyl-4-(2-(((1-benzylpiperidin-4-yl)methyl)amino)ethoxy)-1,3-dihydro-2H-benzo[d]imidazol-2-one] | 8±2% | 14±3% | 18±4% | 12±2% | 22±2% | 27±1% | 19±2% | 32±2% | 39±2% |  | 136 ± 22 nM |  |  |  |  |  | 39.5% | 44.3%
